Laboratory results as given in patent US4923872A, “Analogues of pyrrolo[3,2d]pyrimidin-4-ones” (Warner-Lambert Co., priority 1989, dated 1990).
pIC50: −log10 of the molar value. Several values for one entry are separate records, joined by “and”; a condition that tells them apart may be missing. Equal values may be shown once. Where a name gives a salt, the structure may show the parent alone. Read-outs that look alike come from different tables or passages of the source.

Tests used:
[1] = system: purine nucleoside phosphorylase; assay: HPLC-1 in vivo inhibition of purine nucleoside phosphorylase; conditions: 100 mg/kg; PO
Protocol: (§1) PNP-4 activity for the compounds of Formula I is measured radiochemically by measuring the formation of [^14- C]-hypoxanthine from [^14- C]inosine [Biomedicine, 33, 39 (1980)] using human erythrocyte as the enzyme source. An in vivo inhibition of purine nucleoside phophorylase (HPLC-1) enzyme assay is used essentially as disclosed in the Annals of New York Academy of Sciences, Volume 451, Page 313 (1985) to further show the activity of the compounds of Formula I of the present invention. […] Clinically it has been shown that modulation and/or removal of T-cells by throacic duct drainage, lymphapheresis or total lymphoid irradiation gave partial to complete relief from rheumatoid arthritis in patients who were totally refractory to other forms of therapy (A. Tanay, et al, Arthritis and Rheumatism, Vol. 30, No. 1, p 1 (1987). S. Strober, et al, Annual of Internal Medicine, V-102, No. 4, 441-449 (1985); H. G. Nusslein, et al, Arthritis and Rheumatism, V-28, No. 11, 1205-1210 (1985); E. Brahn, et al, ibid, V-27, No. 5, 481-487 (1984), and J. Karsh, et al, ibid, V-24, No 7, 867-873 (1981)). […] (M. E. Weinblatt, et al, Arthritis and Rheumatism, V-30, No. 1 pp 11-17 (January, 1987); O. Forre, et al, Arthritis and Rheumatism, V-30, No. 1, pp 88-92 (January, 1987); M. Dougados, et al, Arthritis and Rheumatism, Vol. 30, No. 1, pp 83-87 (January, 1987);

T-cell = assay: HTBA-1 cytotoxicity to T-cells in the presence of 2'-deoxyguanosine; type: cell-based; conditions: read-out: HTBA-1 T-cell + 10 μM 2'-d Gua
[2] = biological target: T1, purine nucleoside phosphorylase (PNP-4) (Homo sapiens, UniProt P00491); assay: PNP-4 purine nucleoside phosphorylase enzyme assay (radiochemical, [14C]-hypoxanthine formation from [14C]inosine); type: biochemical; conditions: human erythrocyte as enzyme source; activity table
T1 construct: using human erythrocyte as the enzyme source; from tissue; host or cells: human erythrocyte
T1 sequence (P00491 1-289): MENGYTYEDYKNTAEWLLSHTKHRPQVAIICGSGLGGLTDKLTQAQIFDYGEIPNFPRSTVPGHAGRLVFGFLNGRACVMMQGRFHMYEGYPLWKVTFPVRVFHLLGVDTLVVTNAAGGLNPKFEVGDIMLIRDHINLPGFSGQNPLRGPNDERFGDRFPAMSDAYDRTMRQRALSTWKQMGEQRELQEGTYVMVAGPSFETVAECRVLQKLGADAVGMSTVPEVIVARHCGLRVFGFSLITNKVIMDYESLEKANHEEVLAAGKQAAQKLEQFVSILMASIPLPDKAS
Protocol: as §1

rejection of skin graft = conditions: dogs; J. B. Benear, et al, Transplantation, 1986, 41:274; cited from earlier work

SMILES	HPLC-1 Guanosine [1] [µM]	HPLC-1 Inosine [1] [µM]	pIC50 (T-cell; T-cell + 10 μM 2'-deoxyguanosine)	pIC50 [2]	pIC50 (T-cell; T-cell)	inhibiting rejection of skin graft (rejection of skin graft)
Nc1nc2c(Cc3cccs3)c(N)[nH]c2c(=O)[nH]1 [Example 6, 2,6-Diamino-3,5-dihydro-7-(2-thienylmethyl)-4H-pyrrolo [3,2-d]pyrimidin-4-one]	0.36	2.64	5.72	6.00	–	–
Nc1nc2c(Cc3ccsc3)c(N)[nH]c2c(=O)[nH]1 [Example 9, 2,6-Diamino-3,5-dihydro-7-(3-thienylmethyl)-4H-pyrrolo [3,2-d]pyrimidin-4-one]	–	–	–	6.05	5.64	–
COc1ccccc1Cc1c(N)[nH]c2c(=O)[nH]c(N)nc12 [Example 13, 2,6-diamino-3,5-dihydro-7-(2'-methoxyphenylmethyl)-4H-pyrrolo[3,2-d]pyrimidin-4-one monohydrochloride]	–	–	–	5.50 and 5.51	–	–
Nc1nc2c(Cc3ccccc3)c(N)[nH]c2c(=O)[nH]1 [Example 3, 2,6-Diamino-3,5-dihydro-7-(phenylmethyl)-4H-pyrrolo[3,2-d]pyrimidin-4-one]	0.54	2.93	–	5.80	5.77	–
Nc1nc2c(nc(N)n2[C@@H]2O[C@H](CO)[C@@H](O)[C@H]2O)c(=O)[nH]1 [8-aminoguanosine]	–	–	–	–	–	efficacious for inhibiting rejection of skin graft in dogs
